{"source": "patent US8309557B2", "about": "“Pyrimidin-4-ylpropanedinitrile derivatives, processes for their preparation and their use as herbicides and plant growth regulators” (Bayer Intellectual Property GmbH, priority 2009, dated 2012)", "type_in_all_cases": "in vivo", "key": {"Stellaria media [1]": {"system": "Stellaria media", "assay": "Herbicidal effect post-emergence, STEME", "method": "(§1) Seeds of mono- and dicotyledonous weed plants and crop plants are planted in wood-fiber pots in sandy loam, covered with earth and grown in a greenhouse under good growth conditions. 2 to 3 weeks after sowing, the test plants are treated in the single-leaf stage. The compounds according to the invention, formulated in the form of wettable powders (WP) or as emulsion concentrates (EC), are then sprayed onto the green plant parts as aqueous suspension or emulsion using an application rate of 600 to 800 l of water/ha (converted) with the addition of 0.2% by weight of wetting agent. After the test plants had been in the greenhouse for ca. 3 weeks under optimum growth conditions, the effect of the preparations is scored visually in comparison with untreated controls (herbicidal effect in percent (%): 100% effect=plants have died off, 0% effect=as control plants)."}, "Amaranthus retroflexus [2]": {"system": "Amaranthus retroflexus", "assay": "Herbicidal effect pre-emergence, AMARE", "settings": "for Effect in % in respect of stated plant, AMARE: 320 g/hectare, visual grading after 3 weeks vs untreated controls", "text": "(§2) Seeds of mono- and dicotyledonous weed plants and crop plants are planted in wood-fiber pots in sandy loam and covered with earth. The compounds according to the invention, formulated in the form of wettable powders (WP) or as emulsion concentrates (EC), are then applied to the surface of the covering earth as aqueous suspension or emulsion at an application rate corresponding to 320 g/hectare at an application rate of 600 to 800 l of water/ha (converted) with the addition of 0.2% wetting agent.\n(§3) Following treatment, the pots are placed in a greenhouse and kept under good growth conditions for the test plants. The visual grading of the damage to the test plants is carried out after a test time of 3 weeks in comparison to untreated controls (herbicidal effect in percent (%): 100% effect=plants have died off, 0% effect=as control plants)."}, "Abutilon theophrasti [3]": {"system": "Abutilon theophrasti", "assay": "Herbicidal effect pre-emergence, ABUTH", "text": "as §2, §3"}, "[4]": {"system": "Polygonum (Fallopia) convolvulus", "assay": "Herbicidal effect post-emergence, POLCO", "method": "as §1"}, "Matricaria inodora": {"system": "Matricaria inodora", "assay": "Herbicidal effect post-emergence, MATIN", "method": "as §1"}, "Veronica persica [5]": {"system": "Veronica persica", "assay": "Herbicidal effect post-emergence, VERPE", "method": "as §1"}, "Amaranthus retroflexus [6]": {"system": "Amaranthus retroflexus", "assay": "Herbicidal effect post-emergence, AMARE", "method": "as §1"}, "Viola tricolor [7]": {"system": "Viola tricolor", "assay": "Herbicidal effect pre-emergence, VIOTR", "settings": "320 g/hectare, visual grading after 3 weeks vs untreated controls", "text": "as §2, §3"}, "Viola tricolor [8]": {"system": "Viola tricolor", "assay": "Herbicidal effect post-emergence, VIOTR", "method": "as §1"}, "[9]": {"system": "Tripleurospermum inodorum", "assay": "Herbicidal effect pre-emergence, MATIN", "settings": "320 g/hectare, visual grading after 3 weeks vs untreated controls", "text": "as §2, §3"}, "Ipomoea purpurea [10]": {"system": "Ipomoea purpurea", "assay": "Herbicidal effect post-emergence, PHBPU", "method": "as §1"}, "Alopecurus myosuroides": {"system": "Alopecurus myosuroides", "assay": "Herbicidal effect pre-emergence, ALOMY", "settings": "for Effect in % in respect of stated plant, ALOMY: 320 g/hectare, visual grading after 3 weeks vs untreated controls", "text": "as §2, §3"}, "Veronica persica [11]": {"system": "Veronica persica", "assay": "Herbicidal effect pre-emergence, VERPE", "settings": "320 g/hectare, visual grading after 3 weeks vs untreated controls", "text": "as §2, §3"}, "Setaria viridis": {"system": "Setaria viridis", "assay": "Herbicidal effect pre-emergence, SETVI", "text": "as §2, §3"}, "Echinochloa crus-galli [12]": {"system": "Echinochloa crus-galli", "assay": "Herbicidal effect pre-emergence, ECHCG", "settings": "0.32 kg of active substance per hectare, visual grading after 3 weeks", "text": "as §2, §3"}, "Sinapis alba": {"system": "Sinapis alba", "assay": "Herbicidal effect pre-emergence, Sinapis alba", "settings": "0.32 kg of active substance per hectare, visual grading after 3 weeks", "text": "as §2, §3"}, "Lolium multiflorum": {"system": "Lolium multiflorum", "assay": "Herbicidal effect pre-emergence, LOLMU", "text": "as §2, §3"}, "Stellaria media [13]": {"system": "Stellaria media", "assay": "Herbicidal effect pre-emergence, STEME", "settings": "0.32 kg of active substance per hectare, visual grading after 3 weeks", "text": "as §2, §3"}, "Avena fatua": {"system": "Avena fatua", "assay": "Herbicidal effect pre-emergence, Avena fatua", "settings": "0.32 kg of active substance per hectare, visual grading after 3 weeks", "text": "as §2, §3"}, "Abutilon theophrasti [14]": {"system": "Abutilon theophrasti", "assay": "Herbicidal effect post-emergence, ABUTH", "method": "as §1"}, "Echinochloa crus-galli [15]": {"system": "Echinochloa crus-galli", "assay": "Herbicidal effect post-emergence, ECHCG", "method": "as §1"}, "Ipomoea purpurea [16]": {"system": "Ipomoea purpurea", "assay": "Herbicidal effect pre-emergence, PHBPU", "settings": "320 g/hectare, visual grading after 3 weeks vs untreated controls", "text": "as §2, §3"}, "[17]": {"settings": "320 g/hectare, visual grading after 3 weeks vs untreated controls"}, "[18]": {"settings": "0.32 kg of active substance per hectare, visual grading after 3 weeks"}}, "data": [{"smiles": "N.N#CC(C#N)c1nc(-c2ccc(Cl)cc2F)nc(N)c1Cl", "note": "[Compound 345]", "values": [{"measurement": "Effect in % in respect of stated plant, STEME", "setting": "Stellaria media [1]", "value": 90, "unit": "%"}, {"measurement": "Effect in % in respect of stated plant, AMARE", "setting": "Amaranthus retroflexus [2]", "value": 90, "unit": "%"}, {"measurement": "Effect in % in respect of stated plant, ABUTH", "setting": "Abutilon theophrasti [3]; [17]", "value": 90, "unit": "%"}, {"measurement": "Effect in % in respect of stated plant, POLCO", "setting": "[4]", "value": 80, "unit": "%"}, {"measurement": "Effect in % in respect of stated plant, MATIN", "setting": "Matricaria inodora", "value": 90, "unit": "%"}, {"measurement": "Effect in % in respect of stated plant, VERPE", "setting": "Veronica persica [5]", "value": 90, "unit": "%"}, {"measurement": "Effect in % in respect of stated plant, AMARE", "setting": "Amaranthus retroflexus [6]", "value": 100, "unit": "%"}, {"measurement": "Effect in % in respect of stated plant, VIOTR", "setting": "Viola tricolor [7]", "value": 80, "unit": "%"}, {"measurement": "Effect in % in respect of stated plant, VIOTR", "setting": "Viola tricolor [8]", "value": 80, "unit": "%"}, {"measurement": "Effect in % in respect of stated plant, MATIN", "setting": "[9]", "value": 80, "unit": "%"}, {"measurement": "Effect in % in respect of stated plant, PHBPU", "setting": "Ipomoea purpurea [10]", "value": 90, "unit": "%"}, {"measurement": "Effect in % in respect of stated plant, ALOMY", "setting": "Alopecurus myosuroides", "value": 80, "unit": "%"}, {"measurement": "Effect in % in respect of stated plant, VERPE", "setting": "Veronica persica [11]", "value": 100, "unit": "%"}, {"measurement": "Effect in % in respect of stated plant, SETVI", "setting": "Setaria viridis; [17]", "value": 80, "unit": "%"}]}, {"smiles": "N#CC(C#N)c1nc(-c2ccc([N+](=O)[O-])cc2)nc(N)c1Cl", "note": "[compound 9]", "values": [{"measurement": "herbicidal effect", "setting": "Amaranthus retroflexus [2]; [18]", "value": "very good herbicidal effect"}, {"measurement": "herbicidal effect", "setting": "Echinochloa crus-galli [12]", "value": "very good herbicidal effect"}, {"measurement": "herbicidal effect", "setting": "Abutilon theophrasti [3]; [18]", "value": "very good herbicidal effect"}, {"measurement": "herbicidal effect", "setting": "Sinapis alba", "value": "very good herbicidal effect"}, {"measurement": "herbicidal effect", "setting": "Lolium multiflorum; [18]", "value": "very good herbicidal effect"}, {"measurement": "herbicidal effect", "setting": "Stellaria media [13]", "value": "very good herbicidal effect"}, {"measurement": "herbicidal effect", "setting": "Avena fatua", "value": "very good herbicidal effect"}, {"measurement": "Effect in % in respect of stated plant, VIOTR", "setting": "Viola tricolor [7]", "value": 90, "unit": "%"}, {"measurement": "herbicidal effect", "setting": "Alopecurus myosuroides; [18]", "value": "very good herbicidal effect"}, {"measurement": "Effect in % in respect of stated plant, VERPE", "setting": "Veronica persica [11]", "value": 80, "unit": "%"}, {"measurement": "herbicidal effect", "setting": "Setaria viridis; [18]", "value": "very good herbicidal effect"}]}, {"smiles": "Cc1ccc(-c2nc(N)c(Cl)c(C(C#N)C#N)n2)c(F)c1F.N", "note": "[Compound 387]", "values": [{"measurement": "Effect in % in respect of stated plant, POLCO", "setting": "[4]", "value": 100, "unit": "%"}, {"measurement": "Effect in % in respect of stated plant, ABUTH", "setting": "Abutilon theophrasti [14]", "value": 90, "unit": "%"}, {"measurement": "Effect in % in respect of stated plant, VERPE", "setting": "Veronica persica [5]", "value": 80, "unit": "%"}, {"measurement": "Effect in % in respect of stated plant, AMARE", "setting": "Amaranthus retroflexus [6]", "value": 100, "unit": "%"}, {"measurement": "Effect in % in respect of stated plant, ECHCG", "setting": "Echinochloa crus-galli [15]", "value": 90, "unit": "%"}, {"measurement": "Effect in % in respect of stated plant, ALOMY", "setting": "Alopecurus myosuroides", "value": 80, "unit": "%"}, {"measurement": "Effect in % in respect of stated plant, VERPE", "setting": "Veronica persica [11]", "value": 100, "unit": "%"}]}, {"smiles": "Cc1ccc(-c2nc(N)c(Cl)c(C(C#N)C#N)n2)c(F)c1F", "note": "[compound 202]", "values": [{"measurement": "Effect in % in respect of stated plant, PHBPU", "setting": "Ipomoea purpurea [16]", "value": 100, "unit": "%"}, {"measurement": "Effect in % in respect of stated plant, AMARE", "setting": "Amaranthus retroflexus [2]", "value": 90, "unit": "%"}, {"measurement": "Effect in % in respect of stated plant, POLCO", "setting": "[4]", "value": 90, "unit": "%"}, {"measurement": "Effect in % in respect of stated plant, ABUTH", "setting": "Abutilon theophrasti [14]", "value": 90, "unit": "%"}, {"measurement": "Effect in % in respect of stated plant, MATIN", "setting": "Matricaria inodora", "value": 80, "unit": "%"}, {"measurement": "Effect in % in respect of stated plant, AMARE", "setting": "Amaranthus retroflexus [6]", "value": 100, "unit": "%"}, {"measurement": "Effect in % in respect of stated plant, ECHCG", "setting": "Echinochloa crus-galli [15]", "value": 90, "unit": "%"}, {"measurement": "Effect in % in respect of stated plant, VERPE", "setting": "Veronica persica [11]", "value": 100, "unit": "%"}]}, {"smiles": "CC(C)(C)c1nc(N)c(Cl)c(C(C#N)C#N)n1.N", "note": "[compound 455]", "values": [{"measurement": "Effect in % in respect of stated plant, LOLMU", "setting": "Lolium multiflorum; [17]", "value": 80, "unit": "%"}, {"measurement": "Effect in % in respect of stated plant, VIOTR", "setting": "Viola tricolor [7]", "value": 100, "unit": "%"}]}]}
